Measured values taken from patent US6225345A, “Azahexane derivatives as substrate isosters of retroviral asparate proteases” (Novartis AG, priority 1995, dated 2001).
pIC50: −log10 of the molar value.

Tests used:
in vivo = conditions: mouse, po, 120 mg/kg
Experimental: In order to determine their pharmacokinetics, the compounds of formula I are dissolved in dimethyl sulfoxide (DMSO) in a concentration of 240 mg/ml. The resulting solutions are diluted 1:20 (v/v) with 20% (w/v) aqueous hydroxypropyl-β-cyclodextrin solution in order to obtain a concentration of the test compound in question of 12 mg/ml. The resulting solution is treated briefly with ultrasound and administered orally to female BALB/c mice (Bomholt-garden, Copenhagen, Denmark) by artificial tube feeding at a dose of 120 mg/kg. At fixed times (for example 30, 60, 90, 120 min) after administration, mice are sacrificed and the plasma stored in heparinised test tubes. The blood is centrifuged (12,000×g, 5 min) and the plasma removed. The plasma is deproteinised by the addition of an equal volume of acetonitrile. The mixture is mixed using a vortex mixer and left to stand at room temperature for 20 to 30 minutes. The precipitate is pelleted by centrifugation (12,000×g, 5 min), and the concentration of the test compound is determined by reversed phase high performance liquid chromatography (HPLC).
The HPLC analysis of the samples obtained in accordance with the method described above is carried out on a 125×4.6 mm Nucleosil® C18 -column (reversed-phase material supplied by Macherey & Nagel, Duren, Germany, based on silica gel derivatised with carbon radicals having 18 carbon atoms), using a 2 cm long preliminary column of the same column material. The test is carried out with the following linear acetonitrile/water gradient (in each case in the presence of 0.05% trifluoroacetic acid): 20% acetonitrile to 100% acetonitrile for 20 min; then 5 min 100% acetonitrile; then returning to the initial conditions for 1 min and 4 min reequilibration. The flow rate is 1 ml/min. […] The test compound is detected by UV absorption measurement at 255 nm. Peaks are identified by the retention time and the UV spectrum between 205 and 400 nm. The concentrations are determined by the external standard method; the peak heights are obtained for determining the concentrations by comparison with standard curves.

HIV-1/MN in MT-2-cells = test: Protection of HIV-1/MN-infected MT-2-cells, reverse transcriptase activity; type: cell-based; conditions: Human immunodeficiency virus 1, MT2, 96 h; 90% reduction of RT activity; HIV-1-infected MT-2-cells; 4 days; read-out: ED90 (the source's name)
From the text: In a further test it can be shown that compounds of formula I protect cells normally infected by HIV from such an infection or at least slow down such an infection. For this test, MT-2-cells infected with HIV-1/MN are used. MT-2-cells have been transformed with a continuous producer of HTLV-1 (a virus causing leukaemia); they are therefore especially sensitive to the cytopathogenic effect of HIV. MT-2-cells can be obtained via the AIDS Research and Reference Reagent Program, Division of AIDS, NIAID, NIH from Dr. Douglas Richman (see J. Biol. Chem. 263, 5870-5875 (1988) and also Science 229, 563-566 (1985)). The MT-2-cells are cultured in RPMI 1640-medium (Gibco, Scotland; RPMI comprises an amino acid mixture without glutamine) supplemented with 10% heat-inactivated foetal calf serum, glutamine and standard antibiotics. In all cases the cells, and also the virus stock solution used for the infection (HIV-1/MN), are free of mycoplasms. The virus stock solution is prepared as a cell culture supernatant of the permanently infected cell line H9/HIV-1/MN, which can likewise be obtained via the AIDS Research and Reference Program, Division of AIDS, NIAID, NIH from Dr. Robert Gallo (see also Science 224, 500-503 (1984) and Science 226, 1165-1170 (1984)). The titre of the HIV-1/MN virus stock solution (determined by titration onto MT-2-cells) is 4.2×10^5 TCID50/ml (TCID50=Tissue Culture Infective Dose=dose that infects 50% of the MT-2-cells). In order to measure the infection-inhibiting action of the compounds of formula I, 50 μl of the test compound in question in culture medium and 2800 TCID50 of HIV-1/MN in 100 μl of culture medium are added to 2×10^4 exponentially growing MT-2-cells which have been applied in 50 μl of culture medium to 96-well microtitre plates (having a round base). After 4 days' incubation (at 37° C., 5% CO2) a 10 μl sample of the supernatant is taken from each well, transferred to a further 96-well microtitre plate and (if necessary) stored at -20° C. In order to measure the activity of the virus-associated reverse transcriptase, 30 μl of reverse transcriptase (RT) cocktail are added to each sample. The reverse transcriptase cocktail consists of 50 mM Tris (α,α,α-tris(hydroxymethyl)methylamine, Ultra pur, Merck, Germany) pH 7.8; 75 mM KCl, 2 mM dithiothreitol, 5 mM MgCl2; 0.1% Nonidet P40 (detergent; Sigma, Switzerland), 0.8 mM EDTA, 10 μg/ml Poly-A (Pharmacia, Uppsala, Sweden) and 0.16 μg/ml oligo(T) (=pdT(12-18), Pharmacia, Uppsala, Sweden) as "template primer"--if desired, the mixture is filtered through a […] Acrodisc filter (Gelman Sciences Inc., Ann Arbor, USA). It is stored at -20° C. Prior to the test, 0.1% (v/v) [alpha-^32 P]dTTP is added to aliquots of the solution in order to establish a final radioactivity of 10 μCi/ml.
After mixing, the plate is incubated for 2 hours at 37° C. 5 μl of the reaction mixture are transferred to DE81 paper (Whatman, one filter per well). The dried filters are washed three times for 5 minutes with 300 mM NaCl/25 mM trisodium citrate and then once with ethanol and again dried in the air. The radioactivity on the filters is measured in a Matrix Packard 96-well counter (Packard, Zurich, Switzerland). The ED90 values are calculated and are defined as the concentration of the test compound that reduces the RT activity by 90% in comparison with a control without test compound. […]

HIV-1-protease = molecular target: T1, HIV-1-protease (Human immunodeficiency virus type 1 group M subtype B, UniProt P04585); test: HIV-1-protease inhibition with icosapeptide substrate […] (HPLC); type: biochemical; conditions: pH 6.0, 37° C., 1 hour, icosapeptide 122 μM
T1 construct: made in house
Experimental: The inhibitory action of the compounds of formula I on the proteolytic activity of HIV-1-protease can be shown, for example, analogously to the method described by A. D. Richards et al., J. Biol. Chem. 265(14), 7733-7736 (1990). In that method the inhibition of the action of HIV-1-protease (prepared in accordance with S. Billich et al., J. Biol. Chem. 263(34), 17905-17908 (1990)) is measured in the presence of the icosapeptide […] SEQ ID NO:1, a synthetic substrate of HIV-1-protease, prepared by peptide synthesis in accordance with known procedures, see J. Schneider et al., Cell 54, 363-368 (1988)), which contains as substrate analogue one of the cleavage sites of the gag-precursor protein (natural substrate of HIV-1-protease). That substrate and its cleavage products are analysed by high performance liquid chromatography (HPLC).
The test compound is dissolved in dimethyl sulfoxide. The enzymatic test is carried out by adding suitable dilutions of the inhibitor in 20 mM β-morpholinoethanesulfonic acid (MES) buffer pH 6.0 to the test mixture. That mixture consists of the above-mentioned iscosapeptide (122 μM) in 20 mM MES-buffer pH 6.0. 100 μl are used per test batch. The reaction is started by the addition of […] of HIV-1-protease solution and is stopped after one hours incubation at 37° C. by the addition of 10 μl of 0.3M HClO4. After centrifugation of the sample at 10,000×g for 5 minutes, […] of the resulting supernatant are applied to a 125×4.6 mm Nucleosil® C18-5m-HPLC column (reversed-phase material supplied by Macherey & Nagel, Duren, FRG, based on silica gel that has been charged with C18 alkyl chains). The uncleaved icosapeptide and its cleavage products are eluted from the column by means of the following gradient: 100% eluant 1→50% eluant 1+50% eluant 2 (eluant 1: 10% acetonitrile, 90% H2 O, 0.1% trifluoroacetic acid (TFA); eluant 2: 75% acetonitrile, 25% H2 O, 0.08% TFA) for 15 minutes, throughflow rate 1 ml/min. The quantification of the eluted peptide fragments is carried out by measuring the peak height of the cleavage product at 215 nm.
In the test system described above (with […]), SEQ ID NO:1 the following IC50 values are obtained for Examples 1 to 5: […]

virus replication = conditions: in words; cited from earlier work
HIV-protease = conditions: cited from earlier work
[1] = test system: CD4-lymphocytes in the blood; conditions: AIDS patients, in words; cited from earlier work
[2] = in vivo; cited from earlier work
[3] = in vivo, po; cited from earlier work

| Compound | concentration at 0.5 h (in vivo) [nM] | concentration at 1.5 h (in vivo) [nM] | EC90 (HIV-1/MN in MT-2-cells) [nM] | pIC50 (HIV-1-protease) | virus replication in cell experiments (virus replication) | inhibitory action against HIV-protease in vitro (HIV-protease) | surrogate-marker (titre of the CD4-lymphocytes) [1] | blood levels in humans [2] | blood levels in rodents [3] |
| --- | --- | --- | --- | --- | --- | --- | --- | --- | --- |
| COC(=O)N[C@H](C(=O)N[C@@H](Cc1ccccc1)[C@@H](O)CN(Cc1ccc(-c2ccccc2)cc1)NC(=O)[C@@H](NC(=O)OC)C(C)(C)C)C(C)C [Example 1, 1-(4-Biphenylyl)-2-N-(N-methoxycarbonyl-(L)-tert-leucyl)-amino-4(S)-hydroxy-5(S)-N-(N-methoxycarbonyl-(L)-valyl)-amino-6-phenyl-2-azahexane] | 6330 | 5350 | 3000 | 7.29 |  |  |  |  |  |
| COC(=O)N[C@H](C(=O)NN(Cc1ccc(-c2ccccc2)cc1)C[C@H](O)[C@H](Cc1ccccc1)NC(=O)[C@@H](NC(=O)OC)C(C)(C)C)C(C)C [Example 2, 1-(4-Biphenylyl)-2-N-(N-methoxycarbonyl-(L)-valinyl)-amino-4(S)-hydroxy-5(S)-N-(N-methoxycarbonyl-(L)-tert-leucyl)-amino-6-phenyl-2-azahexane] | 640 | 1110 | 3000 | 7.07 |  |  |  |  |  |
| COC(=O)N[C@H](C(=O)NN(Cc1ccc(-c2ccccc2C#N)cc1)C[C@H](O)[C@H](Cc1ccccc1)NC(=O)[C@@H](NC(=O)OC)C(C)(C)C)C(C)C [Example 3, 1-[4-(2-Cyanophenyl)phenyl]-2-N-(N-methoxycarbonyl-(L)-valyl)-amino-4(S)-hydroxy-5(S)-N-(N-methoxycarbonyl-(L)-tert-leucyl)-amino-6-phenyl-2-azahexane] | 1420 | 1950 | 10000 | 7.42 |  |  |  |  |  |
| COC(=O)N[C@H](C(=O)N[C@@H](Cc1ccccc1)[C@@H](O)CN(Cc1ccc(-c2ccccc2C#N)cc1)NC(=O)[C@@H](NC(=O)OC)C(C)(C)C)C(C)C [Example 4, 1-[4-(2-Cyanophenyl)phenyl)-2-N-(N-methoxycarbonyl-(L)-tert-leucyl)-amino-4(S)-hydroxy-5(S)-N-(N-methoxycarbonyl-(L)-valyl)-amino-6-phenyl-2-azahexane] | 1680 | 1930 | 3000 | 7.37 |  |  |  |  |  |
| COC(=O)N[C@H](C(=O)N[C@@H](Cc1ccccc1)[C@@H](O)CN(Cc1ccc(-c2ccccc2)cc1)NC(=O)[C@@H](NC(=O)OC)C(C)(C)C)C(C)(C)C [Example 5, 1-(4-Biphenylyl)-4(S)-hydroxy-5(S)-2,5-bis[N-(N-methoxycarbonyl-(L)-tert-leucyl)-amino]-6-phenyl-2-azahexane] | 5530 | 4910 | 3000 | 7.24 |  |  |  |  |  |
| CC(C)(C)NC(=O)[C@@H]1C[C@@H]2CCCC[C@@H]2CN1C[C@@H](O)[C@H](Cc1ccccc1)NC(=O)[C@H](CC(N)=O)NC(=O)c1ccc2ccccc2n1 [Ro 31-8959, N-tert-butyl-decahydro-2-[2(R)-hydroxy-4-phenyl-3(S)-[[N-2-quinolyl-carbonyl-L-asparaginyl]amino]butyl]-(4aS,8aS)-isoquinoline-3(S)-carboxamide] |  |  |  |  | suppression of virus replication | exhibits an inhibitory action | initial positive effects | usable blood levels | blood levels that are still usable |
